Source: patent US12509424B2, “Compound and composition as PDGF receptor kinase inhibitor” (NIPPON SHINYAKU CO., LTD., priority 2019, dated 2025)

Key:
[1] = biological target: TEL-KIT fusion gene transfected cells (Ba/F3); experiment: Suppression of proliferation of TEL-KIT fusion gene transfected Ba/F3 cells; settings: read-out: KIT/BaF3 proliferation inhibition (IC50); TEL-KIT expressing Ba/F3 cells, 72 hours, final concentration 0.1 to 10,000 nM;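 further: viable cells quantified via formazan from tetrazolium reduction, inhibition scaled with 0.1% DMSO control as 0% and medium-only blank as 100%, IC50 from two-parameter logistic fit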
Excerpt: Fabrication of TEL-PDGFRβ and TEL-KIT Fusion Gene Transfected Cells
Subsequently, the vectors for gene transfection were introduced using a transfection reagent (FuGENE6, Promega Corporation) into packaging cells derived from a human fetal kidney cell line, PLAT-E, in the logarithmic growth phase. Since the culture supernatant of PLAT-E after the gene transfection contained virus particles for gene transfection, it was collected and used as a medium for gene transfection. The medium for gene transfection was added to a plate coated with RetroNectin and incubated, and the virus particles were allowed to adhere to the plate. Thereafter, the mouse pro-B cell line Ba/F3 in the logarithmic growth phase was seeded onto the plate and infected with the virus to fabricate cells that proliferate in a PDGFRβ or KIT dependent manner.
The test substance was prepared with dimethyl sulfoxide (DMSO) to 10 mM and diluted with DMSO so as to reach a concentration of 0.0001 to 3 mM. Furthermore, it was diluted by 100 times with distilled water.
Measurement of Suppression Action Against Proliferation of TEL-PDGFRβ or TEL-KIT Expressing Cells
The day after TEL-PDGFRβ and TEL-KIT expressing cells were seeded onto 96 well plates, the prepared test substance solution was added thereto with a final concentration being 0.1 to 10,000 nM. After 72 hours, the viable cell count was measured using the amount of formazan generated from the reduction of a tetrazolium salt compound by the mitochondrial dehydrogenase of viable cells as an indicator.
Based on the amount of formazan in each condition, the suppression rate against cell proliferation was calculated when the amounts of formazan in the negative control (0.1% DMSO solution) and Blank (medium only) were defined as 0% and 100%, respectively. Subsequently, a nonlinear regression analysis with a two parameter logistic model for the log dose and suppression rate against cell proliferation was carried out using the SAS system (SAS Institute Inc.) to estimate the IC50 value.

[2] = biological target: TEL-PDGFRβ fusion gene transfected cells (Ba/F3); experiment: Suppression of proliferation of TEL-PDGFRβ fusion gene transfected Ba/F3 cells; format: cell-based, human; settings: TEL-PDGFRβ expressing Ba/F3 cells, 72 hours, final concentration 0.1 to 10,000 nM; read-out: PDGFR β/BaF3 proliferation inhibition (IC50)
Excerpt: 2. Preparation of Test Substance
4. Analysis of Measurement Results

[3] = test system: pulmonary arterial smooth muscle cells; experiment: Suppression of proliferation of pulmonary arterial smooth muscle cells (PDGF-BB stimulation, BrdU); format: cell-based; settings: PASMC, 24 h; healthy human derived pulmonary arterial smooth muscle cells; human PDGF-BB 10 ng/mL stimulation; BrdU uptake after 1 day; test substance final concentration 3 to 10,000 nM; read-out: Human normal PASMC proliferation suppression (PDGF stimulation_IC50)
In short: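 Test compound (final 3 to 10,000 nM) was added together with BrdU and PDGF-BB (final 10 ng/mL) to healthy human pulmonary artery smooth muscle cells held a day in 0.1% FBS. Proliferation was read after 1 day as anti-BrdU-detected BrdU incorporation.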

PDGFR-β = PDGFR-β (Homo sapiens (Human), UniProt P09619); experiment: PDGFR-β tyrosine kinase inhibitory action (HTRF KinEASE-TK); format: biochemical; settings: PDGFR-β enzyme 1 ng/μL, 30° C. for 30 minutes; read-out: PDGF-β IC50
In short: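 Recombinant PDGFR-β at 1 ng/μL final with TK substrate-3-biotin in a substrate solution containing 0.6 μM ATP; buffer 50 mM HEPES pH 7.0, 5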

Sequence of PDGFR-β (P09619 33-1106): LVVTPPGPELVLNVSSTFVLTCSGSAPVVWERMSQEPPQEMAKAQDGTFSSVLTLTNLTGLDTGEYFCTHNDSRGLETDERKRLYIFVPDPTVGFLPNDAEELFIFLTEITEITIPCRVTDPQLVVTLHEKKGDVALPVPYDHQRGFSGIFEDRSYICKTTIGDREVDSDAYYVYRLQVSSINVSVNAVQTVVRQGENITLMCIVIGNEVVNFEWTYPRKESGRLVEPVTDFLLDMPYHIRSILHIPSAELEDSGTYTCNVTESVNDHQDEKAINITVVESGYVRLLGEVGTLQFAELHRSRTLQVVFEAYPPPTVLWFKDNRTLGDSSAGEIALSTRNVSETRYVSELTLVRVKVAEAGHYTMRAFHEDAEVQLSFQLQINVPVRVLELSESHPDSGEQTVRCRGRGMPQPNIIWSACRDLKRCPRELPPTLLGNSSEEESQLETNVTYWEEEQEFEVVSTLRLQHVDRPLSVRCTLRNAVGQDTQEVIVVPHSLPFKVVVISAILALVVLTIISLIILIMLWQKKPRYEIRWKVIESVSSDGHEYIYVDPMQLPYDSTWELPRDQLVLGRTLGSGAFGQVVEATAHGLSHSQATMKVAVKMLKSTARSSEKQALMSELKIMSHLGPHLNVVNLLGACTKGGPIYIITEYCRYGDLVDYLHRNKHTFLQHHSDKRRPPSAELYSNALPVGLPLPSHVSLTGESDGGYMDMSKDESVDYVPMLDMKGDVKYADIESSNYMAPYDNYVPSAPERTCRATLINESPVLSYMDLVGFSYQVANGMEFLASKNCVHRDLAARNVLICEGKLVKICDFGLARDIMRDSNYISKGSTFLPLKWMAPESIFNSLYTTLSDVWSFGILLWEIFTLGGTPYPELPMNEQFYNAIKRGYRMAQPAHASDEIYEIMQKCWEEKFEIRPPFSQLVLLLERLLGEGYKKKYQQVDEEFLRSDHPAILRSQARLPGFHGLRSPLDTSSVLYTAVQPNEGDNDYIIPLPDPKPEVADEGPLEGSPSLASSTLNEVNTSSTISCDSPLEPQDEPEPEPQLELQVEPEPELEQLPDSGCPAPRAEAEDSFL
Sequence of TEL-PDGFRβ fusion gene transfected cells (Ba/F3) (P09619 33-1106 limits assumed, change not shown): as the sequence (P09619 33-1106) above
Sequence of TEL-KIT fusion gene transfected cells (Ba/F3) (P10721 26-976 limits assumed, change not shown): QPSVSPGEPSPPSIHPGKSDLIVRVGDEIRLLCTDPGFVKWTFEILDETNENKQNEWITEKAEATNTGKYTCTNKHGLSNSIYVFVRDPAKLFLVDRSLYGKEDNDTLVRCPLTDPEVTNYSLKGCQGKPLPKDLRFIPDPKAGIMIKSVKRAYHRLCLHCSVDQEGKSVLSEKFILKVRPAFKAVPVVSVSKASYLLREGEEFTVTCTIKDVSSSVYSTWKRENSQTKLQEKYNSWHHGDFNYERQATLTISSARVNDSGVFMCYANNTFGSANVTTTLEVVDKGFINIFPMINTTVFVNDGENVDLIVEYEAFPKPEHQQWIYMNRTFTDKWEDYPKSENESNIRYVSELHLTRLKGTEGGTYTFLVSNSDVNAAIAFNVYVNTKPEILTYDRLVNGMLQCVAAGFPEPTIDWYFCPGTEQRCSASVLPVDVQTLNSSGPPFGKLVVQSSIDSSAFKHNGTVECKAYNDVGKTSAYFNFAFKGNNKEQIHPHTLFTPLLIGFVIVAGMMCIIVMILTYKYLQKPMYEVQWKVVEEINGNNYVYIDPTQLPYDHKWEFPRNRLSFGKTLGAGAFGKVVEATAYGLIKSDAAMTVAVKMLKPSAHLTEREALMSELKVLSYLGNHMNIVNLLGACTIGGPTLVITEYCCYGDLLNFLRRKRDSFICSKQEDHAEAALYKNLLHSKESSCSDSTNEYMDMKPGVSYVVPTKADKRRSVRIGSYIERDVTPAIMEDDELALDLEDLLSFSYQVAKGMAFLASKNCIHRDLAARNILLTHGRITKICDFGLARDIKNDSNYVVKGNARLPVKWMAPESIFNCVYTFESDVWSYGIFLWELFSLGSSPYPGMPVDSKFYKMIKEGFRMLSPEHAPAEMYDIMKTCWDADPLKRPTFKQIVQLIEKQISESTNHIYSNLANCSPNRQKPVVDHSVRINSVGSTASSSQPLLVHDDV

| SMILES | IC50 [1] [nM] | IC50 [2] [nM] | IC50 (PDGFR-β) [nM] | IC50 [3] [nM] |
| --- | --- | --- | --- | --- |
| Cc1ccc(C(=O)N[C@@H](CO)[C@@H](O)c2ccccc2)cc1Nc1ccnc(-c2cncc3ccccc23)n1 [Example 80, N-[(1S,2S)-1,3-dihydroxy-1-phenylpropan-2-yl]-3-{[2-(isoquinolin-4-yl)pyrimidin-4-yl]amino}-4-methylbenzamide] | > 10000 | 80 | 120 | 280 |
| Cc1ccc(C(=O)N[C@H]2CCCC[C@@H]2O)cc1N[C@@H](C)c1cncc(-c2cccnc2)c1 [Example 85, 3-{[(1S)-1-([3,3′-bipyridin]-5-yl)ethyl]amino}-N-[(1S,2S)-2-hydroxycyclohexyl]-4-methylbenzamide] | 4600 | 19 | 180 | 130 |
| Cc1ccc(C(=O)N[C@H]2CCCC[C@@H]2O)cc1N[C@@H](C)c1cncc(C#Cc2ccccc2)c1 [Example 86, N-[(1S,2S)-2-hydroxycyclohexyl]-4-methyl-3-({(1S)-1-[5-(phenylethynyl)pyridin-3-yl]ethyl}amino)benzamide] | 1700 | 42 | 230 | 280 |
| Cc1ccc(C(=O)N[C@H]2CCCC[C@@H]2O)cc1N[C@@H](C)c1cncc(-c2ccncc2)c1 [Example 87, 3-{[(1S)-1-([3,4′-bipyridin]-5-yl)ethyl]amino}-N-[(1S,2S)-2-hydroxycyclohexyl]-4-methylbenzamide] | 9900 | 27 | 250 | 350 |
| Cc1ccc(C(=O)N[C@H]2CCCC[C@@H]2O)cc1N[C@@H](C)c1cncc(-c2ccccn2)c1 [Example 89, 3-{[(1S)-1-([2,3′-bipyridin]-5′-yl)ethyl]amino}-N-[(1S,2S)-2-hydroxycyclohexyl]-4-methylbenzamide] | 610 | 20 | 78 | 190 |
| C[C@H](Nc1cc(C(=O)N[C@H]2CCCC[C@@H]2O)ccc1Cl)c1cncc(-c2cccnc2)c1 [Example 90, 3-{[(1S)-1-([3,3′-bipyridin]-5-yl)ethyl]amino}-4-chloro-N-[(1S,2S)-2-hydroxycyclohexyl]benzamide] | 8300 | 35 | 310 | 360 |
| Cc1ccc(C(=O)N[C@H]2CCCC[C@@H]2O)cc1NCc1cncc(Br)c1 [Example 91, 3-{[(5-bromopyridin-3-yl)methyl]amino}-N-[(1S,2S)-2-hydroxycyclohexyl]-4-methylbenzamide] | 2700 | 26 | 150 | 150 |
| Cc1ccc(C(=O)N[C@H]2CCCC[C@@H]2O)cc1NCc1cncc(C#CC2CC2)c1 [Example 94, 3-({[5-(cyclopropylethynyl)pyridin-3-yl]methyl}amino)-N-[(1S,2S)-2-hydroxycyclohexyl]-4-methylbenzamide] | 260 | 10 | 49 | 90 |
| Cc1ccc(C(=O)N[C@H]2CCCC[C@@H]2O)cc1NCc1cncc(-c2ncccn2)c1 [Example 95, N-[(1S,2S)-2-hydroxycyclohexyl]-4-methyl-3-({[5-(pyrimidin-2-yl)pyridin-3-yl]methyl}amino)benzamide] | 1000 | 5.7 | 120 | 96 |
| Cc1ccc(C(=O)N[C@H]2CCCC[C@@H]2O)cc1NCc1cnc2ccccc2c1 [Example 96, N-[(1S,2S)-2-hydroxycyclohexyl]-4-methyl-3-{[(quinolin-3-yl)methyl]amino}benzamide] | 310 | 12 | 200 | 72 |
| Cc1ccc(C(=O)N[C@H]2CCCC[C@@H]2O)cc1NCc1cncc(C#CC2(O)CC2)c1 [Example 97, N-[(1S,2S)-2-hydroxycyclohexyl]-3-[({5-[(1-hydroxycyclopropyl)ethynyl]pyridin-3-yl}methyl)amino]-4-methylbenzamide] | 1900 | 20 | 100 | 160 |
| Cc1ccc(C(=O)N[C@H]2CCCC[C@@H]2O)cc1NCc1cncc(-c2ccc(C(C)(C)N)cc2)c1 [Example 98, 3-[({5-[4-(2-aminopropan-2-yl)phenyl]pyridin-3-yl}methyl)amino]-N-[(1S,2S)-2-hydroxycyclohexyl]-4-methylbenzamide] | > 10000 | 40 | 140 | 160 |
| Cc1ccc(C(=O)N[C@H]2CCCC[C@@H]2O)cc1NCc1cncc(-c2ccc(N)cc2)c1 [Example 99, 3-({[5-(4-aminophenyl)pyridin-3-yl]methyl}amino)-N-[(1S,2S)-2-hydroxycyclohexyl]-4-methylbenzamide] | 480 | 0.5 | 13 | 27 |
| Cc1ccc(C(=O)N[C@H]2CCCC[C@@H]2O)cc1NCc1cncc(-c2ccsc2)c1 [Example 103, N-[(1S,2S)-2-hydroxycyclohexyl]-4-methyl-3-({[5-(thiophen-3-yl)pyridin-3-yl]methyl}amino)benzamide] | 2500 | 4.1 | 50 | 40 |
| O=C(N[C@H]1CCCC[C@@H]1O)c1ccc(Cl)c(NCc2cncc(-c3ncccn3)c2)c1 [Example 104, 4-chloro-N-[(1S,2S)-2-hydroxycyclohexyl]-3-({[5-(pyrimidin-2-yl)pyridin-3-yl]methyl}amino)benzamide] | 3400 | 3.4 | 260 | 38 |
| Cc1ccc(C(=O)N[C@H]2CCCC[C@@H]2O)cc1NCc1cnn2ccsc12 [Example 105, N-[(1S,2S)-2-hydroxycyclohexyl]-4-methyl-3-{[(pyrazolo[5,1-b][1,3]thiazol-7-yl)methyl]amino}benzamide] | 920 | 4.7 | 230 | 28 |
| Cc1ccc(C(=O)N[C@H]2CCCC[C@@H]2O)cc1NCc1cncc(-c2ncc(F)cn2)c1 [Example 107, 3-({[5-(5-fluoropyrimidin-2-yl)pyridin-3-yl]methyl}amino)-N-[(1S,2S)-2-hydroxycyclohexyl]-4-methylbenzamide] | 1200 | 19 | 190 | 110 |

Second part, led by results:

| IC50 [1] [nM] | IC50 [2] [nM] | IC50 (PDGFR-β) [nM] | SMILES | IC50 [3] [nM] |
| --- | --- | --- | --- | --- |
| 3300 | 140 | 190 | Cc1c(F)cc(C(=O)N[C@H]2CCCC[C@@H]2O)cc1Nc1cccc(-c2cccnc2)n1 [Example 81, 3-[([2,3′-bipyridin]-6-yl)amino]-5-fluoro-N-[(1S,2S)-2-hydroxycyclohexyl]-4-methylbenzamide] | 110 |
| 500 | 50 | 19 | Cc1ccc(C(=O)N[C@H]2CCCC[C@@H]2O)cc1N[C@@H](C)c1cncc(-c2ccccc2)c1 [Example 84, N-[(1S,2S)-2-hydroxycyclohexyl]-4-methyl-3-{[(1S)-1-(5-phenylpyridin-3-yl)ethyl]amino}benzamide] | 160 |
| 6000 | 43 | 230 | Cc1ccc(C(=O)N[C@H]2CCCC[C@@H]2O)cc1N[C@@H](C)c1cncc(-c2ncccn2)c1 [Example 88, N-[(1S,2S)-2-hydroxycyclohexyl]-4-methyl-3-({(1S)-1-[5-(pyrimidin-2-yl)pyridin-3-yl]ethyl}amino)benzamide] | 210 |
| 1400 | 20 | 46 | Cc1ccc(C(=O)N[C@H]2CCCC[C@@H]2O)cc1NCc1cncc(-c2ccccc2)c1 [Example 92, N-[(1S,2S)-2-hydroxycyclohexyl]-4-methyl-3-{[(5-phenylpyridin-3-yl)methyl]amino}benzamide] | 66 |
| 8900 | 17 | 32 | Cc1ccc(C(=O)N[C@H]2CCCC[C@@H]2O)cc1NCc1cncc(-c2cc(F)cc(F)c2)c1 [Example 100, 3-({[5-(3,5-difluorophenyl)pyridin-3-yl]methyl}amino)-N-[(1S,2S)-2-hydroxycyclohexyl]-4-methylbenzamide] | 71 |
| 9000 | 56 | 170 | Cc1ccc(C(=O)N[C@H]2CCCC[C@@H]2O)cc1NCc1cncc(-c2ccccc2)n1 [Example 101, N-[(1S,2S)-2-hydroxycyclohexyl]-4-methyl-3-{[(6-phenylpyrazin-2-yl)methyl]amino}benzamide] | 71 |
| 620 | 2 | 23 | Cc1ccc(C(=O)N[C@H]2CCCC[C@@H]2O)cc1NCc1cncc(-c2cccs2)c1 [Example 102, N-[(1S,2S)-2-hydroxycyclohexyl]-4-methyl-3-({[5-(thiophen-2-yl)pyridin-3-yl]methyl}amino)benzamide] | 30 |
| 1300 | 2.1 | 67 | Cc1c(F)cc(C(=O)N[C@H]2CCCC[C@@H]2O)cc1NCc1cncc(-c2ncccn2)c1 [Example 106, 3-fluoro-N-[(1S,2S)-2-hydroxycyclohexyl]-4-methyl-5-({[5-(pyrimidin-2-yl)pyridin-3-yl]methyl}amino)benzamide] | 140 |
